Measurements published in ChEMBL document CHEMBL4715700, “Growth inhibitory effect of D-arabinose against the nematode Caenorhabditis elegans: Discovery of a novel bioactive monosaccharide” (Bioorg Med Chem Lett, 2016).
Active and inactive are the calls of the source. The calls are words filed in the database; no cut-off is given here.

Key:
Caenorhabditis elegans [1] = test: Growth inhibition of Caenorhabditis elegans N2 L1 larvae under monoxenic condition assessed as reduction in body size at 42 mM incubated for 72 hrs by microscopic method relative to control; format: functional, organism-based; settings: for IC50: N2, 72 h
Caenorhabditis elegans [2] = test: Growth inhibition of Caenorhabditis elegans N2 L1 larvae under monoxenic condition with Escherichia coli food assessed as reduction in body size at 42 mM incubated for 72 hrs by microscopic method relative to control; format: functional
Caenorhabditis elegans [3] = test: Growth inhibition of Caenorhabditis elegans N2 L1 larvae under monoxenic condition with Escherichia coli food assessed as reduction in motility at 42 mM incubated for 72 hrs by microscopic method relative to control; format: functional, organism-based
Caenorhabditis elegans [4] = test: Growth inhibition of Caenorhabditis elegans N2 L1 larvae under axenic condition assessed as reduction in body size at 16 mM incubated for 7 days by microscopic method relative to control; format: functional; set-up: scale not given: the % may be the effect or the level left; settings: time 7 day
Caenorhabditis elegans [5] = test: Growth inhibition of Caenorhabditis elegans N2 assessed as reduction in body size at 10 mM in presence of 125 mM D-glucose by microscopic method; format: functional, organism-based
Caenorhabditis elegans [6] = test: Growth inhibition of Caenorhabditis elegans N2 assessed as reduction in body size at 10 mM in presence of D-ribose by microscopic method; format: functional, organism-based
Caenorhabditis elegans [7] = test: Growth inhibition of Caenorhabditis elegans N2 assessed as reduction in body size at 10 mM in presence of D-fructose by microscopic method; format: functional, organism-based
[8] = Toxicity in Caenorhabditis elegans N2 under monoxenic condition with Escherichia coli food assessed as mortality at 42 mM incubated for 72 hrs by microscopic method relative to control; settings: 42000 µM

| Compound | Activity (Caenorhabditis elegans [2]) | also measured |
| --- | --- | --- |
| OC[C@H]1OC(O)C[C@@H](O)[C@@H]1O (stereo partly drawn) |  | IC50 (Caenorhabditis elegans [1]): 19.5 mM |
| OC[C@@H]1OC(O)[C@@H](O)[C@H]1O (stereo partly drawn) | inactive |  |
| OC[C@H]1OC(O)[C@H](O)[C@@H]1O (stereo partly drawn) | inactive |  |
| OC1OC[C@@H](O)[C@H](O)[C@@H]1O (stereo partly drawn) | inactive |  |
| OC1OC[C@H](O)[C@H](O)[C@H]1O (stereo partly drawn) | inactive |  |
| OC[C@@H](O)C(O)[C@H](O)CO | inactive |  |
| OC1OC[C@H](O)[C@@H](O)[C@H]1O (stereo partly drawn) | inactive |  |
| OC1OC[C@@H](O)[C@@H](O)[C@@H]1O (stereo partly drawn) [D-ARABINOSE] | 7.8% | Activity (Caenorhabditis elegans [3]): Active; Activity (Caenorhabditis elegans [4]): 15.2%; Activity (Caenorhabditis elegans [5]): Active; Activity (Caenorhabditis elegans [6]): inactive; Activity (Caenorhabditis elegans [7]): inactive; Activity (Caenorhabditis elegans [1]): Dose-dependent effect; IC50 (Caenorhabditis elegans [1]): 7.5 mM; Activity [8]: Non-Toxic |
| OC1OC[C@H](O)[C@@H](O)[C@@H]1O (stereo partly drawn) | inactive |  |
| O=C[C@H](O)[C@@H](O)[C@H](O)CO | inactive |  |
